Where “and” joins values, the source holds several entries; their conditions need not be identical. Identical values can stand only once. Like-named read-outs stand apart in the source and are kept apart here.
Columns and labels:
MERS-CoV pseudovirus = test: microbe, parasite or virus in culture; assay type: cell-based; conditions: Middle East respiratory syndrome-related coronavirus, Huh-7, read-out: MERS-CoV pseudovirus inhibitory activity IC50
[1] = Pharmacokinetic study in CD-1 mice (gavage, intravenous, intraperitoneal); assay type: in vivo; conditions: 20 mg/kg; for Cmax / Tmax / half-life / AUC(0-inf) / MRT inf / AUC(0-t): male, CD-1, mouse, plasma; for AUC(0-inf): read-out: AUC INF_obs; for MRT inf: read-out: MRT INF_obs
Method: Nine CD-1 mice, male, weighing 18-22 g, were randomly divided into 3 groups with 3 mice in each group. The test compounds were administered by gavage, intravenously and intraperitoneally according to the following schemes.
Before the test, they were fasted for 12 hours and were allowed to drink water freely, and were fed uniformly 2 h after administration.
There were 3 animals at each time point.
The solution for gavage administration was formulated with DMSO/0.5% HPMC (5/95, v/v) into the final concentration. Intravenous and intraperitoneal administration were formulated with DMSO/PEG300/EtOH/NaCl (5/40/5/50, v/v/v). Retention samples of the dosing solution (50 μL of the drug solution was taken and mixed well with 50 μL of DMSO before and after the administration) for testing.
The drug was administered according to the above dosage, the time of administration were recorded, and 20 μL of blood was collected from the mouse femoral plexus at the above set time point and placed in a heparinized test tube and centrifuged immediately at 11000 rpm for 5 min. 10 μL of plasma was immediately and accurately drawn into a centrifuge tube pre-filled with 100 μL of PK-IS solution (prepared with methanol:acetonitrile (1:1, v/v)), mixed well, and frozen to store at −20° C. for testing.

[2] = i.p. (20 mg/Kg per Table 3), individual animal
[3] = ip, i.p. (20 mg/Kg per Table 3), Mean of 3 mice
[4] = ip, i.p. (20 mg/Kg per Table 3), individual animal
[5] = ip, i.p. (20 mg/Kg per Table 3), individual animal, read-out: AUC last
[6] = po, p.o. (gavage 20 mg/Kg per Table 3), Mean of 3 mice
[7] = po, p.o. (gavage 20 mg/Kg per Table 3), Mean of 3 mice, read-out: AUC last (oral exposure)
[8] = po, p.o. (gavage 20 mg/Kg per Table 3), individual animal
[9] = po, p.o. (gavage 20 mg/Kg per Table 3), individual animal, read-out: AUC last
[10] = p.o. (gavage 20 mg/Kg per Table 3), individual animal
[11] = ip, i.p. (20 mg/Kg per Table 3), Mean of 3 mice, read-out: AUC last (exposure for intraperitoneal injection)

SMILES: O=C(NCc1ccccc1)C(=O)[C@H](C[C@@H]1CCNC1=O)NC(=O)[C@H](CC1CCCCC1)NC(=O)c1ccc2ccccc2n1 [Example A42, N—((S)-1-(((S)-4-(benzylamino)-3,4-dione-1-((S)-2-oxopyrrolidine-3-yl)but-2-yl)amino)-3-cyclohexyl-1-oxopropan-2-yl)-quinoline-2-carboxamide]
- IC50 (MERS-CoV pseudovirus): 3.2 ± 0.6 nM
- AUC INF_obs [1, 2]: 10647 ng·h/mL and 11768 ng·h/mL
- AUC last [1, 2]: 10576 ng·h/mL and 11340 ng·h/mL
- C max [1, 2]: 3959 ng/mL and 5038 ng/mL
- MRT INF_obs [1, 2]: 3.41 h and 4.99 h
- T1/2 [1, 2]: 3.67 h and 6.20 h
- Cmax [1, 3]: 4280 ng/mL
- Tmax [1, 3]: 0.25 h
- half-life [1, 3]: 5.46 h
- AUC(0-inf) [1, 3]: 12000 ng·h/mL
- MRT inf [1, 3]: 4.93 h
- Cmax [1, 4]: 3840 ng/mL
- Tmax [1, 4]: 0.25 h
- half-life [1, 4]: 6.52 h
- AUC(0-inf) [1, 4]: 13700 ng·h/mL
- AUC(0-t) [1, 5]: 13000 ng·h/mL
- MRT inf [1, 4]: 6.38 h
- Cmax [1, 6]: 858 ng/mL
- Tmax [1, 6]: 0.25 h
- half-life [1, 6]: 5.81 h
- AUC(0-inf) [1, 6]: 750 ng·h/mL
- AUC(0-t) [1, 7]: 742 ng·h/mL
- MRT inf [1, 6]: 2.3 h
- Cmax [1, 8]: 1020 ng/mL
- Tmax [1, 8]: 0.25 h
- half-life [1, 8]: 4.19 h
- AUC(0-inf) [1, 8]: 791 ng·h/mL
- AUC(0-t) [1, 9]: 787 ng·h/mL
- MRT inf [1, 8]: 1.98 h
- AUC INF_obs [1, 10]: 953 ng·h/mL and 506 ng·h/mL
- AUC last [1, 10]: 945 ng·h/mL and 494 ng·h/mL
- C max [1, 10]: 966 ng/mL and 588 ng/mL
- MRT INF_obs [1, 10]: 2.10 h and 2.83 h
- T1/2 [1, 10]: 5.52 h and 7.73 h

SMILES: Cc1cnc(C(=O)N[C@@H](CC2CCCCC2)C(=O)N[C@@H](C[C@@H]2CCCNC2=O)C(=O)C(=O)NCc2ccccc2)o1 [Example A241]
- IC50 (MERS-CoV pseudovirus): 2.5 ± 1.3 nM
- AUC INF_obs [1, 2]: 3524 ng·h/mL and 4121 ng·h/mL
- AUC last [1, 2]: 3514 ng·h/mL and 4100 ng·h/mL
- C max [1, 2]: 4206 ng/mL and 4836 ng/mL
- MRT INF_obs [1, 2]: 1.37 h and 1.50 h
- T1/2 [1, 2]: 3.59 h and 4.72 h
- T max [1, 2]: 3 min
- Cmax [1, 3]: 4660 ng/mL
- Tmax [1, 3]: 0.18 h
- half-life [1, 3]: 4.36 h
- AUC(0-inf) [1, 3]: 4180 ng·h/mL
- AUC(0-t) [1, 11]: 4160 ng·h/mL
- MRT inf [1, 3]: 1.44 h
- Cmax [1, 4]: 4930 ng/mL
- half-life [1, 4]: 4.78 h
- AUC(0-inf) [1, 4]: 4900 ng·h/mL
- AUC(0-t) [1, 5]: 4870 ng·h/mL
- MRT inf [1, 4]: 1.44 h
- Cmax [1, 6]: 767 ng/mL
- Tmax [1, 6]: 0.25 h
- half-life [1, 6]: 4.22 h
- AUC(0-inf) [1, 6]: 665 ng·h/mL
- AUC(0-t) [1, 7]: 663 ng·h/mL
- MRT inf [1, 6]: 1.82 h
- Cmax [1, 8]: 707 ng/mL
- Tmax [1, 8]: 0.25 h
- half-life [1, 8]: 3.84 h
- MRT inf [1, 8]: 2.12 h
- AUC INF_obs [1, 10]: 469 ng·h/mL and 947 ng·h/mL and 579 ng·h/mL
- AUC last [1, 10]: 467 ng·h/mL and 945 ng·h/mL and 576 ng·h/mL
- C max [1, 10]: 942 ng/mL and 651 ng/mL
- MRT INF_obs [1, 10]: 1.68 h and 1.64 h
- T1/2 [1, 10]: 3.85 h and 4.96 h

SMILES: Cc1cnc(C(=O)N[C@@H](CC2CCCCC2)C(=O)N[C@@H](C[C@@H]2CCNC2=O)C(=O)C(=O)NCc2ccccc2)o1 [Example A242, N—((S)-1-(((S)-4-(benzylamino)-3,4-dione-1-((S)-2-oxopyrrolidine-3-yl)but-2-yl)amino)-3-cyclohexyl-1-oxopropan-2-yl)-5-methyloxazole-2-carboxamide]
- IC50 (MERS-CoV pseudovirus): 2.2 ± 0.8 nM
- AUC INF_obs [1, 2]: 5808 ng·h/mL and 6750 ng·h/mL
- AUC last [1, 2]: 5779 ng·h/mL and 6628 ng·h/mL
- C max [1, 2]: 4739 ng/mL and 5334 ng/mL
- MRT INF_obs [1, 2]: 1.85 h and 2.45 h
- T1/2 [1, 2]: 4.37 h and 6.75 h
- Cmax [1, 3]: 5490 ng/mL
- Tmax [1, 3]: 0.25 h
- half-life [1, 3]: 5.32 h
- AUC(0-inf) [1, 3]: 6960 ng·h/mL
- AUC(0-t) [1, 11]: 6890 ng·h/mL
- MRT inf [1, 3]: 2.07 h
- Cmax [1, 4]: 6400 ng/mL
- Tmax [1, 4]: 0.25 h
- half-life [1, 4]: 4.85 h
- AUC(0-inf) [1, 4]: 8320 ng·h/mL
- AUC(0-t) [1, 5]: 8260 ng·h/mL
- MRT inf [1, 4]: 1.92 h
- Cmax [1, 6]: 409 ng/mL
- Tmax [1, 6]: 0.25 h
- half-life [1, 6]: 4.51 h
- AUC(0-inf) [1, 6]: 493 ng·h/mL
- AUC(0-t) [1, 7]: 488 ng·h/mL
- MRT inf [1, 6]: 2.56 h
- Tmax [1, 8]: 0.25 h
- half-life [1, 8]: 4 h
- AUC(0-inf) [1, 8]: 436 ng·h/mL
- AUC(0-t) [1, 9]: 434 ng·h/mL
- MRT inf [1, 8]: 2.13 h
- AUC INF_obs [1, 10]: 413 ng·h/mL and 629 ng·h/mL
- AUC last [1, 10]: 409 ng·h/mL and 622 ng·h/mL
- C max [1, 10]: 499 ng/mL and 247 ng/mL and 482 ng/mL
- MRT INF_obs [1, 10]: 2.84 h and 2.71 h
- T1/2 [1, 10]: 4.63 h and 4.91 h

Source: patent publication US12152017B2, “Ketoamide compound and preparation method, pharmaceutical composition, and use thereof” (Shanghai Institute of Materia Medica, Chinese Academy of …, priority 2018, dated 2024)
